Measurements taken from patent publication EP2255814A1, “AGENT FOR INCREASING THE QUANTITY OF HYALURONIC ACID” (Nagase ChemteX Corporation, priority 2008, dated 2009).

Tests used:
hyaluronan synthase HAS2 = test: Augmentation effect on mRNA expression of hyaluronan synthase HAS2 (semi-quantitative RT-PCR); format: cell-based; conditions: human fibroblast NHDF(AD), phospholipid liposome in culture medium, 24 hours; concentrations only in Fig. 1
Protocol: Normal human fibroblasts (NHDF(AD); Kurabo Industries Ltd.) were seeded at 8×10^5/well in 6-well plates. After 24-hour preculture, the culture media were removed and replaced with culture media each containing a different phospholipid liposome prepared in Preparation Examples 2 to 4. The culture was maintained for 24 hours. Then, after removal of the culture medium and addition of 1 mL of ISOGEN (NIPPON GENE), RNA was extracted from the cells according to the usual method described in the attachment of ISOGEN.
cDNA preparation was performed using SuperScriptIII First-Strand Synthesis System for RT-PCR (Invitrogen) according to the operating procedures described in the attachment of the kit. RT-PCR was performed using primers below. HAS2 (Forward): […] (SEQ ID NO: 1) HAS2 (Reverse): […] (SEQ ID NO: 2) β-actin (Forward): […] (SEQ ID NO: 3) β-actin (Reverse): […] (SEQ ID NO: 4)
Using each of the obtained cDNA and the HAS2 primer set, PCR was performed for 29 cycles of 94°C for 1 min, 58°C for 1 min, and 72°C for 1 min. […] After completion of PCR, the PCR product was analyzed by electrophoresis in 1.5% agarose gel. Each band strength was determined by densitometry and the degree of increase in HAS2 mRNA expression was semi-quantitatively assessed by comparison of the HAS2/β-actin ratios between samples and the control. […]

[1] = test system: Normal human dermal fibroblasts (NHDF(AD)); test: Hyaluronan production promoting effect in fibroblasts (ELISA of culture supernatant); format: cell-based; conditions: phospholipid liposome at 100 µg/mL, 24 hours
Protocol: Normal human dermal fibroblasts (NHDF(AD); Kurabo Industries, Ltd.) were seeded at 2×10^5/well in 24-well plates. After 24-hour preculture, the culture media were removed and replaced with culture media each containing a different phospholipid liposome at 100 µg/mL, i.e. , the PI-PS containing liposome obtained in Preparation Example 2, the PI liposome obtained in Preparation Example 3, or the PS liposome obtained in Preparation Example 4. The culture was maintained for 24 hours. The culture supernatant was collected and hyaluronan therein was quantified by the ELISA method.
A hyaluronan binding protein (HABP; SEIKAGAKU CORPORATION) was added at 2 µg/mL to 96-well plates, which were then allowed to stand at 4°C for 24 hours. After this, the wells were washed. Blocking was performed at 4°C for 24 hours using Block Ace (Dainippon Sumitomo Pharma Co., Ltd.). After the wells were washed, a hyaluronan standard (Wako Pure Chemical Industries, Ltd.) or the culture supernatant was added to the wells and 1-hour incubation was performed at 37°C. After the wells were washed, biotinylated HABP (SEIKAGAKU CORPORATION) was added to the wells and 2-hour incubation was performed at 37°C. […] After the reaction at 37°C for 30 minutes, the absorbance at 405 nm was measured.

Substance	mRNA expression of HAS2 (HAS2/β-actin ratio relative to control cells) (hyaluronan synthase HAS2)	production of hyaluronan [1]
L-α-phosphatidylinositol Na [PI]	significantly increased	significantly increased
L-α-phosphatidylserine [PS]	significantly increased	significantly increased
